Laboratory results from ChEMBL document CHEMBL4339226, “Novel Compounds Targeting the RNA-Binding Protein HuR. Structure-Based Design, Synthesis, and Interaction Studies” (ACS Med Chem Lett, 2019).
The source made the active and inactive calls. The calls are words filed in the database; no cut-off is given here.

Key:
[1] = target: ELAV-like protein 1 (Homo sapiens) (UniProt Q15717); assay: Binding affinity to HuR (unknown origin) assessed as absolute STD percentage for isopropyl moiety by 1H-STD-NMR spectroscopic analysis
Chain of ELAV-like protein 1 (Homo sapiens) (Q15717 whole entry): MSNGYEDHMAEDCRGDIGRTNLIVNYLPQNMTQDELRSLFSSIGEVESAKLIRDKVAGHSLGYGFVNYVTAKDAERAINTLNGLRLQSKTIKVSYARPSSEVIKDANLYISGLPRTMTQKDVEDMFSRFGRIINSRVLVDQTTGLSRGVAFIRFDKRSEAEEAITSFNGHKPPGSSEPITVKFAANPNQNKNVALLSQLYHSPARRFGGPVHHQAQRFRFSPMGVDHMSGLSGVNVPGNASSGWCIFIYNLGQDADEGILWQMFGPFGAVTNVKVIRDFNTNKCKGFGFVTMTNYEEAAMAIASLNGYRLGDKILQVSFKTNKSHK

[2] = target: ELAV-like protein 1 (Homo sapiens) (UniProt Q15717); assay: Binding affinity to HuR (unknown origin) assessed as absolute STD percentage for pyridone moiety by 1H-STD-NMR spectroscopic analysis
[3] = Solubility of the compound; format: physicochemical
[4] = target: ELAV-like protein 1 (Homo sapiens) (UniProt Q15717); assay: Binding affinity to HuR (unknown origin) assessed as absolute STD percentage for ring B moiety by 1H-STD-NMR spectroscopic analysis
[5] = target: ELAV-like protein 1 (Homo sapiens) (UniProt Q15717); assay: Binding affinity to HuR (unknown origin) assessed as absolute STD percentage for ring A moiety by 1H-STD-NMR spectroscopic analysis
[6] = target: ELAV-like protein 1 (Homo sapiens) (UniProt Q15717); assay: Binding affinity to HuR (unknown origin) assessed as absolute STD percentage for protons of the amino chain (H14, H15, and H16) by 1H-STD-NMR spectroscopic analysis
[7] = target: ELAV-like protein 1 (Homo sapiens) (UniProt Q15717); assay: Binding affinity to HuR (unknown origin) assessed as absolute STD percentage for ring C moiety by 1H-STD-NMR spectroscopic analysis

Activity [1] | Activity [2] | solubility [3] | Activity [4] | Activity [5] | Activity [6] | Activity [7] | SMILES
0.3% | 1.2% |  |  |  |  |  | CC(C)Cn1cnc(-c2cccc(Oc3ccccc3)c2)c1-c1ccc(=O)[nH]c1
 |  | Insoluble |  |  |  |  | COc1cc(OC)cc(-c2nc3sccn3c2NCCNC(=O)OCc2ccccc2)c1.Cl
0.4% |  |  | 0.03% | 0.2% | inactive |  | COc1cc(OC)cc([C@@H]2[C@@H](C(=O)NCCNCc3ccccc3)CCC(=O)N2CC(C)C)c1 (racemic)
 |  |  | 0.36% | 0.4% |  | 0.25% | O=C(c1ccc(O)cc1)N(CCc1cc(O)cc(O)c1)Cc1cccc(Cl)c1
